Measurements from patent US8563599B2, “Methods for synthesizing glycinols, glyceollins I and II, compositions of selected intermediates, and therapeutic uses thereof” (The United States of America, represented by the Secretary …, priority 2008, dated 2013).
Where two headings read alike, the source gives them in different places.

Columns and labels:
ABTS antioxidant assay = details: for antioxidant activity relative to the standards daidzein and genistein: ABTS assay, summary of Table 1; for Trolox Equivalents (μmol/μmol): IC50 compared to IC50 of trolox; for IC50: concentration causing 50% reduction in ABTS absorbance, 2 min, room temperature
Procedure: This example illustrates how the biological data pertaining to antioxidant properties of the compounds was obtained.
The antioxidant activity of each test agent was assayed by a colorimetric assay described in the literature that utilizes 2,2′-azinobis-3-ethylbenzothiazoline-6-sulfonic acid (ABTS). ABTS has an intense blue-green color in its free radical form, but is colorless without the free radical. Free radical ABTS was generated by reacting 7 mM ABTS with 2.45 mM potassium persulfate in water for 24-48 hr at room temperature in the dark. Test agents were diluted in 50/50 phosphate buffered saline (PBS)/ethanol to a series of five concentrations, then added to a 96 well half-area plate using 50 μl per well with four wells for each agent concentration. Four control wells containing 50/50 PBS/ethanol without test agents were setup for comparison for each test agent. Trolox, a water-soluble form of vitamin E commonly employed as an antioxidant standard, was also tested in each set of experiments. The free radical ABTS solution was diluted with 50/50 PBS/ethanol to give an absorbance of 1.4 absorbance units at 734 nm, and was then added 50 μl per well to two of the four wells for each condition. The other two wells for each condition received 50 μl of 50/50 PBS/ethanol without ABTS to provide background correction absorbance readings. All dilution and plate loading operations were performed on a Packard Multiprobe II HTS automated liquid handling system. […] Readings for wells with ABTS were background corrected using the corresponding wells containing matching test agent levels without ABTS. The background corrected absorbance of each test agent concentration was then compared to the control wells without agent to determine the percent decrease in color intensity, corresponding to the percent of ABTS free radical reduction. A fit of percent absorbance decrease versus test agent concentration was then used to estimate the concentration causing a 50% reduction in absorbance, called the IC50. The test agent IC50 values were then compared to the IC50 of trolox to calculate the trolox equivalents (TE, moles of trolox needed to give the same level of antioxidant activity as one mole of test agent) for each agent. Smaller IC50 values or larger TE values indicate higher levels of antioxidant activity.

MCF7 cells = assay: Growth inhibition assay (NCI method, sulforhodamine B), MCF7; assay type: cell-based, human; details: for GI50: read-out: GI50 (μM) MCF7
MCF12A cells = assay: Growth inhibition assay (NCI method, sulforhodamine B), MCF12A; assay type: cell-based, human; details: for GI50: read-out: GI50 (μM) MCF12A
NCI/ADR-RES cells = assay: Growth inhibition assay (NCI method, sulforhodamine B), NCI/ADR-RES; assay type: cell-based, human; details: for GI50: read-out: GI50 (μM) NCI/ADR-RES; for fall-off in activity in NCI/ADR-RES versus MCF7: multidrug resistant cell line over-expressing Pgp
[1] = target: T1, hrER-α (alpha estrogen receptor) (Homo sapiens, UniProt P03372); assay: ER-α competition binding assay (fluorescence anisotropy, ES2 displacement); details: ERα/ES2 complex, 2 h room temperature, FIG. 9; read-out: IC50 for 50% inhibition of a standard's binding with the alpha estrogen receptor (ER-α)
T1 sequence (P03372 1-595): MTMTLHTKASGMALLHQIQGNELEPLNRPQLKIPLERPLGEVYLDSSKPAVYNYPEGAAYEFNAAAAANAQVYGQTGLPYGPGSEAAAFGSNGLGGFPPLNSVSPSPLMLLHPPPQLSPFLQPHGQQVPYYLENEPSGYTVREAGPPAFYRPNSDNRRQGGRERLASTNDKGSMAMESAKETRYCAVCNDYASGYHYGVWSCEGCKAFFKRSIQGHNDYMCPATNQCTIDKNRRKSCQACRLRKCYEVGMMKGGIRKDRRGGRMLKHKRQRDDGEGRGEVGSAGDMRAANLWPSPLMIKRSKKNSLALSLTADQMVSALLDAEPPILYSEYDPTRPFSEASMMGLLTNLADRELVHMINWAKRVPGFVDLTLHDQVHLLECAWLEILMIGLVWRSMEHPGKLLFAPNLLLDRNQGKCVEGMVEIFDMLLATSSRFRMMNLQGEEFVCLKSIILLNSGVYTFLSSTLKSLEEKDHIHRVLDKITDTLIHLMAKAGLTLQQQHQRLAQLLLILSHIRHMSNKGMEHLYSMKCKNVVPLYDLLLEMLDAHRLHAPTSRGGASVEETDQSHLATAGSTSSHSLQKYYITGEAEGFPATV
Procedure: This example illustrates how the biological data pertaining to interaction of the compounds with the alpha-estrogen receptors was obtained.
A 200 μM working stock solution of GLY I was prepared from an original 10 mM DMSO stock solution. The working stock solution was serially diluted in triplicate in screening buffer to the desired concentrations. hrER-α and ES2 were added to a final concentration of 2 nM and 3 nM, respectively. Negative (ER+ES2, equivalent to 0% inhibition) and positive (free ES2, equivalent to 100% inhibition) controls in the absence of competitor were measured in duplicate. After 2 h at room temperature, the anisotropy values in each tube were measured using the Beacon 2000 system CO. The anisotropy values were converted to percent inhibition using the following formula: I%=(A0−A)/(A0−A100)×100, where I% is the percent inhibition, A0 is 0% inhibition, A100 is 100% inhibition, and A represents the observed value. Polarization values were converted to percent inhibition to make the data more intuitive to the reader and to normalize the day-to-day differences in the starting 0% inhibition polarization values. The percent inhibition versus competitor concentration curves were analyzed by nonlinear least-squares curve fitting and yielded an IC50 value (the concentration of competitor needed to displace half of the bound ligand). To compare binding affinities of the test compounds to those reported in the literature, IC50 values were converted to relative binding affinities (RBA) using E2 as a standard. The E2 RBA was set equal to 100 […].

[2] = system: estrogen receptor (ERE-luciferase) in MCF7 ER-positive cells; assay: ERE-Luciferase assay, estrogenic and antiestrogenic activity; assay type: cell-based, human
Procedure: Cell Culture Studies (MCF7 ER-Positive Cells)
Human cancer cell lines derived from breast (MCF7, ER-positive cells) were cultured in 75 ml culture flasks in DMEM (Invitrogen, Co.) supplemented with 10% FBS (Life Technologies, Inc., Gaithersburg, Md.), basic minimum MEM essential (50×, Invitrogen Co.) and MEM non-essential (100×, Invitrogen, Co.) amino acids, sodium pyruvate (100× Invitrogen Co.), antimicotic-antibiotic (10,000 U/mL penicillin G sodium; 10,000 μg/mL streptomycin sulphate; 25 μg/mL amphotericin B as Fungizone®), and human recombinant insulin (4 mg/mL. Invitrogen Co.). The culture flasks were maintained in a tissue culture incubator in a humidified atmosphere of 5% CO2 and 95% air at 37° C. For estrogen studies, cells were washed with PBS 3 times and grown in phenol red-free DMEM supplemented with 5% dextran-coated charcoal-treated FBS (5% CS-FBS) for 72 h before plating for each particular experiment.
Results were then assessed by using an ERE-luciferase assay. The cells were plated in 24 well plates at 5×10^5 cells/well in the same media and allowed to attach overnight. After 18 hours, cells were transfected for 5 h in serum supplemented-free DMEM with […] pGL2-ERE2X-TK-luciferase plasmid, using 6 μl of effectine (Qiagen)/μg of DNA. After 5 h the transfection medium was removed and replaced with phenol red-free DMEM supplemented with 5% CS-FBS containing vehicle, 17β-estradiol, GLY I, or 17β-estradiol plus GLY I, and incubated at 37° C. After 18 h the medium was removed, and 100 μl of lysis buffer was added per well and then incubated for 15 min at room temperature. Cell debris was pelleted by centrifugation at 15000×g for 5 min. cell extracts were normalized for protein concentration using reagent according to the protocol supplied by the manufacturer (Bio-Rad Laboratories, Inc., Hercules, Calif.). Luciferase activity for the cell extracts was determined using Luciferase substrate (Promega Corp.) in an Autoluminat Plus luminometer.

[3] = Homo sapiens, NCI/ADR-RES, 48 h
[4] = MCF7, human breast cancer cells, 48 hr, 10% serum
[5] = MCF-12A, non-cancerous 'normal' human breast epithelial cells, 48 hr
[6] = Homo sapiens, NCI/ADR-RES, multidrug resistant cell line, 48 hr
[7] = human breast cancer cells, 48 hr, 10% serum
[8] = non-cancerous 'normal' human breast epithelial cells, 48 hr
[9] = multidrug resistant cell line, 48 hr

IC50 (ABTS antioxidant assay) [µM] | SMILES | Trolox Equivalents (μmol/μmol) (ABTS antioxidant assay) | GI50 (MCF7 cells; [4]) [µM] | GI50 (MCF12A cells; [5]) [µM] | GI50 (NCI/ADR-RES cells; [6]) [µM] | GI50 (MCF7 cells; [7]) [µM] | GI50 (MCF12A cells; [8]) [µM] | GI50 (NCI/ADR-RES cells; [9]) [µM] | further results
5.3 ± 0.3 | CC1(C)C=Cc2c(ccc3c2OC[C@@]2(O)c4ccc(O)cc4O[C@@H]32)O1 [7 (−), Glyceollin I (Natural Glyceollin I)] | 1.8 ± 0.1 | 12 | 25 | 27 |  |  |  | IC50 [1]: 1.4 µM; anti-estrogenic activity (ERE-Luciferase) ([2]; at 10-25 μM): only anti-estrogenic activity
5.2 ± 0.3 | CC1(C)C=Cc2c(ccc3c2OC[C@]2(O)c4ccc(O)cc4O[C@H]32)O1 [7 (+), (+) Glyceollin I (Unnatural Glyceollin I)] | 1.8 ± 0.1 | 21 | 31 | 38 |  |  |  | IC50 [1]: 1.4 µM; estrogenic activity (ERE-Luciferase) ([2]; at 10-25 μM): modest estrogenic activity; anti-estrogenic effects (ERE-Luciferase) ([2]; concentration not given): only slight anti-estrogenic effects
3.3 ± 0.2 | O=c1c(-c2ccc(O)cc2)coc2cc(O)ccc12 [Daidzein, reference compound] | 3.0 ± 0.1 | 200 | 120 | 150 |  |  |  | 
 | CC1(C)C=Cc2c(ccc3c2OC[C@@]2(O)c4ccc(O)cc4O[C@@H]32)O1 [isolated GLY I, reference compound] |  |  |  |  |  |  |  | IC50 [1]: 1.1 µM
5 ± 0.5 | CC(C)(C)[Si](C)(C)Oc1ccc2c(c1)OC1c3ccc(O)cc3OCC21O (single isomer, unassigned; (-)) [4 (−), (−) 9-(t-Butyldimethylsilyloxy)-glycinol] | 1.9 ± 0.1 |  |  |  | 7.1 | 11 | 8.7 | 
4.6 ± 0.2 | CC(C)(C)[Si](C)(C)Oc1ccc2c(c1)OC1c3ccc(O)cc3OCC21O (racemic) [4 (+/−), (+) 9-(t-Butyldimethylsilyloxy)-glycinol] | 2.0 ± 0.1 |  |  |  | 4.1 | 4 | 2.9 | 
3.3 ± 0.1 | O=c1c(-c2ccc(O)cc2)coc2cc(O)cc(O)c12 [Genistein, reference compound] | 3.0 ± 0.1 | 46 | 22 | 17 |  |  |  | 
 | CC(=O)O[C@H]1C(=O)[C@@]2(C)[C@H]([C@H](OC(=O)c3ccccc3)[C@]3(O)C[C@H](OC(=O)[C@H](O)[C@@H](NC(=O)c4ccccc4)c4ccccc4)C(C)=C1C3(C)C)[C@]1(OC(C)=O)CO[C@@H]1C[C@@H]2O [paclitaxel, reference compound] |  |  |  |  |  |  |  | potency in MCF7 versus MCF12A (differential in activity) (MCF12A cells; cancer versus normal breast cells): nearly equivalent; fall-off in activity in NCI/ADR-RES versus MCF7 (NCI/ADR-RES cells): ~1,000 fold
3.5 ± 0.3 | Oc1ccc2c(c1)OC[C@@]1(O)c3ccc(O)cc3O[C@@H]21 (racemic) [Glycinol (+/−), (+) Glycinol] | 2.8 ± 0.2 |  |  |  | > 1000 | > 1000 | > 1000 | antioxidant activity relative to the standards daidzein and genistein (ABTS antioxidant assay): about equiactive to the standards; estrogenic activity (ERE-Luciferase) ([2]; concentration not given): significantly stronger estrogenic material; growth inhibitory activity (MCF7 cells; human breast cell lines, 10% serum): lack of growth inhibitory activity
5 ± 0.4 | CC(C)(C)[Si](C)(C)Oc1ccc2c(c1)OC1c3ccc(O)cc3OCC21O (single isomer, unassigned; (+)) [4 (+), (+) 9-(t-Butyldimethylsilyloxy)-glycinol] | 1.9 ± 0.1 |  |  |  | 14 | 15 | 13 | 

SMILES | IC50 (ABTS antioxidant assay) [µM] | Trolox Equivalents (μmol/μmol) (ABTS antioxidant assay) | GI50 (MCF7 cells; [4]) [µM] | GI50 (MCF12A cells; [5]) [µM] | GI50 (NCI/ADR-RES cells; [6]) [µM] | GI50 (MCF7 cells; [7]) [µM] | GI50 (MCF12A cells; [8]) [µM] | GI50 (NCI/ADR-RES cells; [9]) [µM] | further results
CC(C)(C)[Si](C)(C)Oc1ccc(C2(O)COc3cc(OCc4ccccc4)ccc3C2O)c(OCc2ccccc2)c1 (racemic) [2 (+/−), (+) 4′-(t-Butyldimethylsilyloxy)-2′,7-dibenzyloxy-isoflavan-3,4-diol] | > 100 | 0.008 ± 0.006 |  |  |  |  |  |  | antioxidant activity relative to the standards daidzein and genistein (ABTS antioxidant assay): weak activity; GI50 (MCF7 cells; Homo sapiens, MCF7, 48 h): 10 µM; GI50 (MCF12A cells; Homo sapiens, MCF-12A, 48 h): 20 µM; GI50 (NCI/ADR-RES cells; [3]): 120 µM; fall-off in activity in NCI/ADR-RES versus MCF7 (NCI/ADR-RES cells): ca. 100 fold
CC(C)(C)[Si](C)(C)Oc1ccc(C2(O)COc3cc(O)ccc3C2O)c(O)c1 (racemic) [3 (+/−), (+) 4′-(t-Butyldimethylsilyloxy)-2′,7-dihydroxy-isoflavan-3,4-diol] | 4.6 ± 0.3 | 2.0 ± 0.1 |  |  |  |  |  |  | GI50 (MCF7 cells; Homo sapiens, MCF7, 48 h): 31 µM; GI50 (MCF12A cells; Homo sapiens, MCF-12A, 48 h): 36 µM; GI50 (NCI/ADR-RES cells; [3]): 21 µM
